Read-outs that look alike come from different tables or passages of the source.
Tests used:
Pyricularia oryzae [1] = type: cell-based; settings: PO, 48 hours
Phytophthora infestans = experiment: whole plant or invertebrate; type: in vivo; settings: Phytophthora infestans, in Solanum lycopersicum, foliar, read-out: Percent Disease Control, foliar, tomato late blight, 150 ppm, protective
Pyricularia oryzae [2] = experiment: whole plant or invertebrate; type: in vivo; settings: Pyricularia oryzae, foliar, 24 h, read-out: Percent Disease Control, curative, rice blast, 150 ppm, 24 hours after inoculation

SMILES	Spore Germination Rating (Pyricularia oryzae [1]; 1.0 ppm)	Spore Germination Rating (Pyricularia oryzae [1]; 2.5 ppm)	Spore Germination Rating (Pyricularia oryzae [1]; 10 ppm)	Spore Germination Rating (Pyricularia oryzae [1]; 40 ppm)	pest or weed control at 150 ppm (Phytophthora infestans) [%]	pest or weed control at 150 ppm (Pyricularia oryzae [2]) [%]
Cc1cc(C)cc(Oc2nsnc(Cl)c2=O)c1 [Compound 25, 3-chloro-5-(3,5-dimethylphenoxy)-4H--1,2,6-thiadiazin-4-one]	3 (60-80)	0 (0-10)	0 (0-10)	0 (0-10)	100	0
CCOC(=O)c1ccc(Oc2nsnc(Cl)c2=O)cc1 [Compound 7, 3-chloro-5-(4-ethoxycarbonylphenoxy)-4H--1,2,6-thiadiazin-4-one]	1 (10-40)	1 (10-40)	1 (10-40)	1 (10-40)	100	0
Cc1cccc(Oc2nsnc(Cl)c2=O)c1 [Compound 21, 3-chloro-5-(3-methylphenoxy)-4H--1,2,6-thiadiazin-4-one]	4 (80-100)	0 (0-10)	0 (0-10)	0 (0-10)	50	85
N#CCc1ccc(Oc2nsnc(Cl)c2=O)cc1 [Compound 46, 3-chloro-5-[(4-cyanomethyl)-phenoxy]4H--1,2,6-thiadiazin-4-one]	0 (0-10)	0 (0-10)	0 (0-10)	0 (0-10)	75	0
O=c1c(Cl)nsnc1Oc1cc(Cl)cc(Cl)c1 [Compound 20, 3-chloro-5-(3,5-dichlorophenoxy)-4H--1,2,6-thiadiazin-4-one]	1 (10-40)	0 (0-10)	0 (0-10)	0 (0-10)	0	0
O=c1c(Cl)nsnc1Oc1cccc(C(F)(F)F)c1 [Compound 44, 3-chloro-5-[(3-trifluoromethyl)phenoxy]-4H--1,2,6-thiadiazin-4-one]	1 (10-40)	0 (0-10)	0 (0-10)	0 (0-10)	0	0
